From BindingDB's records for doi:10.7270/Q29K48M5 (University of Pittsburgh, 2007) come the findings set out here.

The structures appear in SMILES notation.

The target in this experiment is T1, M-phase inducer phosphatase 2 (Homo sapiens, UniProt P30305).
T1 sequence (P30305 whole entry): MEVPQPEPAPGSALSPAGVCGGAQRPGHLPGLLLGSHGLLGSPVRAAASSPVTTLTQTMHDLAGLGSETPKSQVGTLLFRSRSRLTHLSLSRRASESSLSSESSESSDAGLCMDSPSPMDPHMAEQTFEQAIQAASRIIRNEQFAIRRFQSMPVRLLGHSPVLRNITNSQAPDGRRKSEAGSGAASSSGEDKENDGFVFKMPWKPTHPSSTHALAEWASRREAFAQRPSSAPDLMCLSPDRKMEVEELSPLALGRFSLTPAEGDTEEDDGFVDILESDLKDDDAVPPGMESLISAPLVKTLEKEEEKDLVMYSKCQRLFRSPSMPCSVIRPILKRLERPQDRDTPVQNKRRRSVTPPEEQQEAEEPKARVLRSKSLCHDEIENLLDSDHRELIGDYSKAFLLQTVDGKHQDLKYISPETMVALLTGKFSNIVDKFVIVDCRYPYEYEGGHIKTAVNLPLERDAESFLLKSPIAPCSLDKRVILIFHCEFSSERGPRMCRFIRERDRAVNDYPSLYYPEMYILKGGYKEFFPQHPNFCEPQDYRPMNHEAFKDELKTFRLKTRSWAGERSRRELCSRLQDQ
The experiment can be described thus: inhibition of Cdc25B phosphatase activity – biochemical, 25 mM DTT, probe assessment, dose response (AID 649).
What is called IC50 is the concentration that gives 50% inhibition. Lower therefore signals inhibition by little substance. `Cc1ccc2c(c1C)NC(C(=O)O)C1CC=CC21` (stereo not drawn) registered an IC50 of 17.7 µM. That is a double-digit micromolar value. For the molecule `CC(=O)Nc1cc(OC(C)=O)c2nonc2c1OC(C)=O` [Acetic acid 7-acetoxy-5-acetylamino-benzo[1,2,5]oxadiazol-4-yl ester], the IC50 was above 50 µM. Turning to `O=C1C=Cc2ccccc2/C1=C/NC12CN3CCN(CN(C3)C1)C2` [MLS000071484], the IC50 was above 50 µM.

`COc1ccc(Br)cc1C=c1sc2nc(-c3ccco3)nn2c1=O` [5-[(5-bromanyl-2-methoxy-phenyl)methylidene]-2-(furan-2-yl)-[1,3]thiazolo[3,2-b][1,2,4]triazol-6-one] came in with an IC50 of 14.7 µM.

`CCOc1ccc2noc3c2c1C(=O)c1ccccc1-3` [MLS000106837]: the IC50 is above 50 µM.

`COc1ccc2noc3c2c1C(=O)c1ccccc1-3` [MLS000106874] showed an IC50 above 50 µM. Molecule `CCn1nc(-c2ccccc2)nc2c(=O)n(C)c(=O)nc1-2` [1-Ethyl-6-methyl-3-phenyl-1H-pyrimido[5,4-e][1,2,4]triazine-5,7-dione] had an IC50 of 21.1 µM. `c1ccc(CSc2nnc(-c3ccco3)c(-c3ccco3)n2)cc1` [MLS-0029114.0001] yielded an IC50 above 50 µM.

In turn, `O=C1C=Cc2ccccc2C1=O` [1,2-dihydronaphthalene-1,2-dione] returned an IC50 above 50 µM.

Molecule `Cc1ccccc1Nc1cc2ccccc2c(O)n1` [3-[(2-methylphenyl)amino]-2H-isoquinolin-1-one] had an IC50 of 42.3 µM.

`[O-]/[N+](=C\c1ccc(OC(F)F)cc1)c1ccccc1` [1-[4-(difluoromethoxy)phenyl]-N-phenylmethanimine oxide] returned a 50% inhibitory concentration (IC50) above 50 µM.

As to `Oc1nc(Nc2ccccc2)cc2ccccc12` [MLS000043701], it took 48 µM to reach half-maximal inhibition (IC50).

`COc1cccc2c1NC(C(=O)O)C1CC=CC21` (stereo not drawn) [SMR000009698] had a half-maximal inhibitory concentration (IC50) of 11.7 µM.

Molecule `O=C(OC1CCCCC1)c1ccc2c(c1)C1C=CCC1C(C(=O)O)N2` (stereo not drawn) [SMR000019385] registered an IC50 of 7.42 µM.

The molecule `O=C(NC1(O)C(=O)c2ccccc2C1=O)c1ccccc1` [N-(2-hydroxy-1,3-dioxo-2-indenyl)benzamide] yielded a 50% inhibitory concentration (IC50) above 50 µM. Turning to `Cc1ccc2c(c1)C1C=CCC1C(C(=O)O)N2` (stereo not drawn) [MLS-0067149.0001], the IC50 worked out at 11.4 µM. `O=C1Cc2ccccc2C(=O)N1CCc1ccccc1` [2-(2-phenylethyl)-4H-isoquinoline-1,3-dione]: the IC50 was above 50 µM. The same measure for `COc1cccc2c(C)c(C(=O)O)[nH]c12`: 10.9 µM; for `O=C(Nc1ccc2nc(-c3ccco3)c(-c3ccco3)nc2c1)N1CCCCCC1`: 39.8 µM; for `Cn1ncnc2c(=O)n(C)c(=O)nc1-2`: 34.5 µM. `Nc1cccc2cnccc12` [isoquinolin-5-amine] came in with a half-inhibitory concentration (IC50) above 50 µM. Turning to `CCn1nc(-c2cccs2)nc2c(=O)n(C)c(=O)nc1-2` [1-ethyl-6-methyl-3-thiophen-2-yl-pyrimido[5,4-e][1,2,4]triazine-5,7-dione], the IC50 worked out at 17.2 µM. On to `CCOC(=O)C(C(=O)OCC)c1cc(Br)c2noc3c2c1C(=O)c1ccccc1-3` [MLS000038842], for which the IC50 was above 50 µM.

As to `N#Cc1c(N2CCCC2)nc(N)c2c(N)nc(N3CCCC3)cc12` [SMR000061605], the IC50 was above 50 µM. Consider `N#Cc1c(N)sc(=S)c2c1CCN(Cc1ccccc1)C2` [3-Amino-7-benzyl-1-thioxo-5,6,7,8-tetrahydro-1H-thiopyrano[3,4-c]pyridine-4-carbonitrile], for which the 50% inhibitory concentration (IC50) came to 49.3 µM.

`Cc1c(N=c2c(=O)c3ccccc3c2=O)c(=O)n(-c2ccccc2)n1C` [MLS000105950] yielded an IC50 above 50 µM. `O=C(O)C1Nc2c(O)cccc2C2C=CCC12` (stereo not drawn) showed a half-maximal inhibitory concentration (IC50) of 12.8 µM.

Regarding `[O-]/[N+](=C\c1ccncc1)c1ccccc1`, the IC50 is above 50 µM.
